Source: article PMC11969009 (Nature Communications, 2025)
Values after ≈ are worked out from the molar mass of the structure shown. Values joined by “and” are separate entries in the source; they are usually repeats but may differ in a detail not shown here. Equal values may be shown once. “Also recorded” adds a separate entry of the source. Read-outs that look alike come from different tables or passages of the source.

Experiments:
[1] = tested on: SARS-CoV-2 clinical isolate VIC001; assay type: cell-based
[2] = target: T1, SARS-CoV-2 PLpro (Severe acute respiratory syndrome coronavirus 2, UniProt P0DTD1); assay: biochemical
[3] = in vitro; settings: human, hepatocytes, pH 7.4
[4] = target: T2, CYP1A2 (Homo sapiens, UniProt P05177)
T2 sequence (P05177 whole entry): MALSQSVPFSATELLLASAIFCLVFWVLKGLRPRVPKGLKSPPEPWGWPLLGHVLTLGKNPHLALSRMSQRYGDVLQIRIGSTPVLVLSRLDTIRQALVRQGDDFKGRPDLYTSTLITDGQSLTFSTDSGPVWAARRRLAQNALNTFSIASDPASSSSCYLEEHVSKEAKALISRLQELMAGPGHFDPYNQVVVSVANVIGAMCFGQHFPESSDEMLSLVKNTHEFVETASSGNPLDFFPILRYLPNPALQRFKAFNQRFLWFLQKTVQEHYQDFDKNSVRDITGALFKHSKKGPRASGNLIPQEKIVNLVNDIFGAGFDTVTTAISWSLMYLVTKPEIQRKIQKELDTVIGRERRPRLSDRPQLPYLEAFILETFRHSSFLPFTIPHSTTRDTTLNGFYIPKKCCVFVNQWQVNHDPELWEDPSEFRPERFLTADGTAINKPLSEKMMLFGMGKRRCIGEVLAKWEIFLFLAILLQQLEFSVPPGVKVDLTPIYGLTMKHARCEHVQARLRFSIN

[5] = tested on: SARS-CoV-2 P21; parameters: species or system C57BL/6 (WT) mice; settings: mouse, in vivo
[6] = in vitro; settings: mouse, hepatocytes, pH 7.4
[7] = in vitro; settings: both, CD1, mouse, plasma, pH 7.4
[8] = tested on: SARS-CoV-2 clinical isolate VIC001; assay: microbe, parasite or virus in culture; assay type: cell-based
[9] = target: T3, CYP2B6 (Homo sapiens, UniProt P20813); assay: biochemical
T3 sequence (P20813 whole entry): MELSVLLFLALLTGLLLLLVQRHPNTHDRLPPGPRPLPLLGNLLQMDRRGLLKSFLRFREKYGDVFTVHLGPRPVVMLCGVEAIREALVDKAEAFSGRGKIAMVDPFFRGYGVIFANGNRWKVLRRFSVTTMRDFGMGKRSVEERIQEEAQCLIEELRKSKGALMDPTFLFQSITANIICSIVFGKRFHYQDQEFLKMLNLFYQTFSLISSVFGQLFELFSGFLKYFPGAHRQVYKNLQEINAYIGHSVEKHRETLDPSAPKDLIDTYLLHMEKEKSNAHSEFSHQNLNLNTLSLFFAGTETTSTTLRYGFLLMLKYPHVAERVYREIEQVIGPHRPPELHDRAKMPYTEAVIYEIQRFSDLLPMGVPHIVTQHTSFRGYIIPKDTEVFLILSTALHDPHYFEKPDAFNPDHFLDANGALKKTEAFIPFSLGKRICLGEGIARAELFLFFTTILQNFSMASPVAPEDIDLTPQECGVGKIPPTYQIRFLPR

[10] = in vitro; settings: mouse, microsomes, pH 7.4
[11] = target: T4, CYP2C9 (Homo sapiens, UniProt P11712); assay: in vitro; settings: microsomes, pH 7.4
T4 sequence (P11712 whole entry): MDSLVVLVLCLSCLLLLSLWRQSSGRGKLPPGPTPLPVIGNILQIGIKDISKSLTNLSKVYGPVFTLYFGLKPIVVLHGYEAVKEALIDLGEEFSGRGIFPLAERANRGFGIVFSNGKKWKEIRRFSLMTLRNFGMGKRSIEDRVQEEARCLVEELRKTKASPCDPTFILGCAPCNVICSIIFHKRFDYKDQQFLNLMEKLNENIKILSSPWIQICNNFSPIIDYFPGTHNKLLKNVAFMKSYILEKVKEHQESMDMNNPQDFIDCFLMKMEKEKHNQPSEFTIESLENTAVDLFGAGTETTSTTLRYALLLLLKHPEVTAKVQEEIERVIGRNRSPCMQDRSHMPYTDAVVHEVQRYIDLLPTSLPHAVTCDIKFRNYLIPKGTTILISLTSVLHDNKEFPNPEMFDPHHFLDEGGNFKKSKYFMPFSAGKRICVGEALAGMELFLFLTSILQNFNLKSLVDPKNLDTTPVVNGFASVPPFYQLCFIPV

[12] = in vivo; settings: male, C57BL/6, mouse, po, 100 mg/kg
[13] = target: T1, SARS-CoV-2 PLpro; assay: cell-based; assay type: cell-based
[14] = in vitro; settings: human, microsomes, pH 7.4
[15] = physchem; settings: kinetic from dmso stock
[16] = target: T5, CYP2C19 (Homo sapiens, UniProt P33261)
T5 sequence (P33261 whole entry): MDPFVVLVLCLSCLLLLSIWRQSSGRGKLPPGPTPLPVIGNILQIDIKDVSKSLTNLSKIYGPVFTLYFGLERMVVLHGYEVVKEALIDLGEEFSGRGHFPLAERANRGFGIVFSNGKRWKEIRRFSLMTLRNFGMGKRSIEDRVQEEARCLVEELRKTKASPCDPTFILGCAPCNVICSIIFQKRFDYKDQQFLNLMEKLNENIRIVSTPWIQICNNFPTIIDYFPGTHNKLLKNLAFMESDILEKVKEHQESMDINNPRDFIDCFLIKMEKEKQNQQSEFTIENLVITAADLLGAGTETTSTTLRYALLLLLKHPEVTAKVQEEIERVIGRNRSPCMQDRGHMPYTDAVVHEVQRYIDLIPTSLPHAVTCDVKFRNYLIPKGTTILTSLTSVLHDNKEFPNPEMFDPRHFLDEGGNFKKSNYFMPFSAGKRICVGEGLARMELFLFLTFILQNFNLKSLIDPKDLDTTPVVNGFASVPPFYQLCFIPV

[17] = tested on: CYP3A4/5; assay: in vitro; settings: human, microsomes
[18] = tested on: CYP3A4/5; assay: in vitro; settings: human, microsomes; remark: listed apart in the source
[19] = tested on: SARS-CoV-2 P21; parameters: species or system C57BL/6 (WT) mice; settings: mouse, in vivo; remark: listed apart in the source
[20] = tested on: SARS-CoV-2 P2 strain; parameters: species or system C57BL/6 (WT) mice; settings: mouse, in vivo
[21] = target: T4, CYP2C9; assay: biochemical
[22] = target: T5, CYP2C19; assay: biochemical
[23] = target: T2, CYP1A2; assay: biochemical
[24] = target: T3, CYP2B6
[25] = target: T1, SARS-CoV-2 PLpro; assay: biochemical; assay type: binding
[26] = target: T6, CYP2C8 (Homo sapiens, UniProt P10632); assay: biochemical
T6 sequence (P10632 whole entry): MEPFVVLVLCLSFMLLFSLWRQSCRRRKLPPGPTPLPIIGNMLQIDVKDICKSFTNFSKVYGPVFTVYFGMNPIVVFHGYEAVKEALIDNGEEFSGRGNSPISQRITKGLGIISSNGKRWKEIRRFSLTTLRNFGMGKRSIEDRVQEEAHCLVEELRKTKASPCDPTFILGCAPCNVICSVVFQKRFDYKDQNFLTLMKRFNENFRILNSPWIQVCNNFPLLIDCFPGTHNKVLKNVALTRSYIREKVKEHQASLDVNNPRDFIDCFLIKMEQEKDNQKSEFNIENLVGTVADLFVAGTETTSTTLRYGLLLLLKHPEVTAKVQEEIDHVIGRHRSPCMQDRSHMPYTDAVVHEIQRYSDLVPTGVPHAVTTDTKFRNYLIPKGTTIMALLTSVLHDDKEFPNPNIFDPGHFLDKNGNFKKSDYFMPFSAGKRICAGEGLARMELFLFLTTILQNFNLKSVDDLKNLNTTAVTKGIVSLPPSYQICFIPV

[27] = target: CYP2D6 (Homo sapiens, UniProt P10635); assay: biochemical
CYP2D6, sequence (P10635 whole entry): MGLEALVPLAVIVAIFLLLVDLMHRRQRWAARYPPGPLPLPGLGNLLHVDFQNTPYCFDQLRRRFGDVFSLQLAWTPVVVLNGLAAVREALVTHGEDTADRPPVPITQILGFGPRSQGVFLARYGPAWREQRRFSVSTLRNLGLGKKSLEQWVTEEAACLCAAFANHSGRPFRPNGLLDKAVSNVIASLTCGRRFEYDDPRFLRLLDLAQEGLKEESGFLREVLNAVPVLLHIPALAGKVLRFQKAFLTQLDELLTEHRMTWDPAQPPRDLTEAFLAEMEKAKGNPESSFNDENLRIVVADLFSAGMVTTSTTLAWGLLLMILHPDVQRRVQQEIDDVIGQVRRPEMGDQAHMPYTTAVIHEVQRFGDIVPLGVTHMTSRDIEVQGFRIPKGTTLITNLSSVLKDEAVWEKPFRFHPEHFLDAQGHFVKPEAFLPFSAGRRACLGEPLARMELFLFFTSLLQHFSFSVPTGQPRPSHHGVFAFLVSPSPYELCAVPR

[28] = target: hERG (Homo sapiens, UniProt Q12809); assay: biochemical
hERG, sequence (Q12809 whole entry): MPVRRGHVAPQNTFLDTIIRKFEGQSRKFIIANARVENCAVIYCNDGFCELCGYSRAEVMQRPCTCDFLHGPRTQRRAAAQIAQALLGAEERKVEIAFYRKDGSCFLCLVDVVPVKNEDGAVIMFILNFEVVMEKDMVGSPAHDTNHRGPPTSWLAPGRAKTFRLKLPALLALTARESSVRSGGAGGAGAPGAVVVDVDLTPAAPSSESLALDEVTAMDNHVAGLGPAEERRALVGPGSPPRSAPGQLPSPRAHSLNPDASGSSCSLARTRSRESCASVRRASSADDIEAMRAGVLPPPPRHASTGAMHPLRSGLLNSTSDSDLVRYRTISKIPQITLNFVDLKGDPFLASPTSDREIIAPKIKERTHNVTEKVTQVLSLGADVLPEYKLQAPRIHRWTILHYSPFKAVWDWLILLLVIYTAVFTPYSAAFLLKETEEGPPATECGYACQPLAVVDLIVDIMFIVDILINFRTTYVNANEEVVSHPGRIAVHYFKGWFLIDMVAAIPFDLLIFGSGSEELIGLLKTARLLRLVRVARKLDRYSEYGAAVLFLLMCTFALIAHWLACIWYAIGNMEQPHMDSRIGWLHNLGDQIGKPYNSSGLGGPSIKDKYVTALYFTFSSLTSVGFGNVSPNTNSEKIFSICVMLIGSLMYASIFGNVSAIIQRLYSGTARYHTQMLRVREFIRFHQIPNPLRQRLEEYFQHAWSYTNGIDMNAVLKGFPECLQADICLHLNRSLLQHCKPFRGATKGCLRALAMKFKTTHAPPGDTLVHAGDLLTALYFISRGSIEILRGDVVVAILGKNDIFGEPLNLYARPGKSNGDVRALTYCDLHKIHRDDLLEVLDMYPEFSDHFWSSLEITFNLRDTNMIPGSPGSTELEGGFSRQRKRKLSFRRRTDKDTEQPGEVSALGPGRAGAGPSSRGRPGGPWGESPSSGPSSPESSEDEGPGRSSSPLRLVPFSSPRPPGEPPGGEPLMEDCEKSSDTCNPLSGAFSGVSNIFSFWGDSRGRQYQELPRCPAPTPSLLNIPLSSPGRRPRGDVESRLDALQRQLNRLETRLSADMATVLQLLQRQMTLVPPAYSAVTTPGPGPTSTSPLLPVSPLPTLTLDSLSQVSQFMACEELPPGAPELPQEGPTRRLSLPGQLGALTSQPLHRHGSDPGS

[29] = tested on: SARS-CoV-2 P21; parameters: species or system C57BL/6 (WT) mice; Macrophages: unit not given here; settings: mouse, in vivo
[30] = physchem; settings: pH 7.4
[31] = in vitro; settings: both, human, plasma, pH 7.4
[32] = target: T6, CYP2C8; settings: 20 µM

CCC(CC)COC(=O)[C@H](C)N[P@](=O)(OC[C@H]1O[C@@](C#N)(c2ccc3c(N)ncnn23)[C@H](O)[C@@H]1O)Oc1ccccc1 [Remdesivir, remdesivir]
TCID50 [1]: 15.3

CCON=C(c1ccc2cc(OC)ccc2c1)C1CCCN(C2CCC(O)CC2)C1 (stereo not drawn) [WEHI-P8]
inhibition at 0.545 µM ([2]; Conc 0.545 µM, read-out: SARS-CoV-2 PLpro, UbRh dose-response): 96.1%
inhibition at 1.63 µM ([2]; Conc 1.63 µM, read-out: SARS-CoV-2 PLpro, UbRh dose-response): 97.9%
inhibition at 4.9 µM ([2]; Conc 4.9 µM, read-out: SARS-CoV-2 PLpro, UbRh dose-response): 100%
IC50 ([2]; IC50 (UbRh) SARS-CoV-2 PLpro): 12 nM
inhibition at […] ([2]; read-out: SARS-CoV-2 PLpro, UbRh dose-response): 95.1% and 83.6%
half-life [3]: 2.32 h
hepatocyte CLint [3]: 10 µL/min/1e6 cells
CYP1A2 % inhibition at 20 µM [4]: No measurable inhibition
NORT exploratory behaviour / preference for the novel object [5]: significantly higher preference for the novel object
NORT impairment in females [5]: partially mitigated
overall distance travelled, infected females [5]: rescued by WEHI-P8 treatment
recognition index [5]: did not reveal significant sex- or drug dependent differences
Recognition Index (females) ([5]; 150 mg/kg): 0.5 and 0.9 and 0.57 and 0.7
Recognition Index (males) ([5]; 150 mg/kg): 0.8 and 0.529 and 0.7
half-life [6]: 1.38 h
hepatocyte CLint [6]: 16.8 µL/min/1e6 cells
fraction unbound [7]: 0.062
Ext Data Fig 6e dose response, normalised (0 µM = 100) ([8]; 0.01 µM): 105.19 and 94.34 and 104.76 and 91.8 and 114.493 and 94.2029
Ext Data Fig 6e dose response, normalised (0 µM = 100) ([8]; 0.02 µM): 94.81 and 103.77 and 95.24 and 103.28 and 113.043 and 95.6522
Ext Data Fig 6e dose response, normalised (0 µM = 100) ([8]; 0.04 µM): 90.91 and 75.47 and 93.65 and 80.33 and 105.797 and 88.4058
Ext Data Fig 6e dose response, normalised (0 µM = 100) ([8]; 0.08 µM): 79.22 and 86.79 and 63.49 and 63.93 and 86.9565 and 85.5072
Ext Data Fig 6e dose response, normalised (0 µM = 100) ([8]; 5 µM): 0
EC50 ([8]; Severe acute respiratory syndrome coronavirus 2, Vero, 144 h, read-out: EC50 Replicate 1): 465 nM
EC50 ([8]; Severe acute respiratory syndrome coronavirus 2, Vero, 144 h, read-out: EC50 Replicate 2): 333 nM
EC50 ([8]; Severe acute respiratory syndrome coronavirus 2, Vero, 144 h, read-out: EC50 Replicate 3): 273 nM
EC50 ([8]; Severe acute respiratory syndrome coronavirus 2, Vero, read-out: Antiviral EC50 (plaque assay)): 360 nM
EC50 ([8]; Severe acute respiratory syndrome coronavirus 2, Vero, read-out: Antiviral EC50 (plaque assay) with Pgp inhibitor): 290 nM
EC50 ([8]; read-out: EC50 Replicate 1): 376 nM
EC50 ([8]; read-out: EC50 Replicate 2): 237 nM
EC50 ([8]; read-out: EC50 Replicate 3): 253 nM
IC50 [9]: > 20000 nM
half-life [10]: 0.692 h
microsomal CLint [10]: 33.4 µL/min/mg
inhibition at 20 µM [11]: 26%
AUC(0-inf) [12]: ~108 µM·h
AUC(0-t) [12]: 72.3 µM·h
Cmax [12]: 7.07 µM
Tmax [12]: 1 h
half-life ([12]; Apparent t1/2): 14 h
EC50 [13]: 298 nM
half-life [14]: 2.4 h
microsomal CLint [14]: 9.7 µL/min/mg
solubility kinetic ([15]; pH 2, aqueous buffer): > 320 µM
solubility kinetic ([15]; pH 6.5, aqueous buffer): 160 to 320 µM (≈ 65.7 to 131 µg/mL)
CYP2C19 % inhibition at 20 µM [16]: No measurable inhibition
inhibition at 20 µM ([17]; pH 7.4, CYP3A4/5 % inhibition at 20 µM): 28%
IC50 ([17]; pH 7.4, CYP3A4/5 IC50): > 20000 nM
inhibition at 20 µM ([18]; Time dependent CYP3A4/5 % inhibition at 20 µM): 25%
IC50 ([18]; Time dependent CYP3A4/5 IC50 + NADPH): > 20000 nM
IC50 ([18]; Time dependent CYP3A4/5 IC50 - NADPH): > 20000 nM
gut inflammation [19]: could not be rescued
lung H&E pathology at 1 month, PASC model [19]: reduced signs of haemorrhage and immune cell infiltrates
neuroinflammation, microglial activation (IBA-1) [19]: significantly reduced
right ventricle area [19]: no significant differences between vehicle-treated or antiviral-treated groups
infection-induced weight loss, PASC model ([19]; 150 mg/kg): effectively prevented infection-induced weight loss
survival of acute phase, PASC model ([19]; 150 mg/kg): all treated animals survived the acute phase of infection
antiviral activity (lung viral burden), mild model [20]: antiviral efficacy in inhibiting P2 virus replication, comparable to that observed with WEHI-P8; also recorded: cannot be further enhanced by concurrent ritonavir co-treatment
antiviral efficacy (lung viral burden), mild model, treatment after infection ([20]; 150 mg/kg): did not change the antiviral efficacy
IC50 [21]: > 20000 nM
IC50 [22]: > 20000 nM
IC50 [23]: > 20000 nM
CYP2B6 % inhibition at 20 µM [24]: No measurable inhibition
Kd [25]: 9 nM
Response (RU), report points [25]: 23.2517 RU and 23.7185 RU and 25.1250 RU and 25.7597 RU and 25.8254 RU and 25.1414 RU
IC50 [26]: > 20000 nM
IC50 [27]: 13800 nM
IC50 [28]: 5390 nM
Log2 Fold change IL-10 [29]: -6.27
Macrophages [29]: 10.22 and 12.4 and 14.7 and 14.8 and 13 and 14.2 and 15.1 and 11.5
reduction of viral burdens, severe model [29]: more effective than PLT at reducing viral burdens
weight loss, severe model [29]: rescuing mice from weight loss
lung H&E histology, severe model ([29]; 100 mg/kg): only mild inflammation
lung IHC immune cell subsets, severe model ([29]; 100 mg/kg): significantly reduce the numbers of macrophages and neutrophils
lung cytokine and chemokine profiling, severe model ([29]; 100 mg/kg): significantly reduce the levels of a wider range of pro-inflammatory cytokines and chemokines
efficacy of pre-infection regimen versus treatment after infection ([29]; 150 mg/kg): no more effective than initiating treatment after infection; also recorded: did not confer a significant benefit compared to post-infection treatment initiation
lung H&E histology, severe model ([29]; 150 mg/kg): minimal to unremarkable histological changes
lung IHC immune cell subsets, severe model ([29]; 150 mg/kg): also reduced the number of T cells
chromatographic logD [30]: 3.8
fraction unbound [31]: 0.153
CYP2C8 % inhibition at 20 µM [32]: No measurable inhibition
